Reference: patent US20190255073A1, “ESTERS OF 3-POLYAMINE DERIVATIVES OF BILE ACIDS FOR THE TREATMENT OF INFECTIONS” (VIRBAC, priority 2016, published 2019)
In brackets after ≈: the same amount, converted by molar mass. Where two headings read alike, the source gives them in different places.

Experiments:
E. coli (1956) = experiment: MIC determination by microplate dilution, E. coli animal strain; assay type: cell-based, Escherichia coli; settings: Escherichia coli, Gram-negative, Mueller-Hinton medium, 24 h, 37° C.
Protocol: (§1) 1) Preparation of the Preculture
(§2) A negative control (2 mL of sterile culture medium)
(§3) A positive control (1940 μL of culture medium+40 μL of DMSO+20 μL of bacterial suspension) from a thawed biological strain (the biological strains are stored at −80° C. in glycerol).
(§4) The tubes were incubated at 37° C. for 24 hours at 100 rpm.
(§5) The microorganisms were handled under a type L2 laboratory fume cupboard and, before any handling, a UV cycle was programmed and only sterile material was used. […] The chemical compounds to be tested were prepared in a DMSO/methanol mixture (50/50) at a concentration of 5 mg/mL.
(§6) 2) Preparation of the Microplate for the Determination of the Minimum Inhibitory Concentration (MIC)
(§7) After 24 hours of incubation, a measurement of the optical density was taken using a spectrophotometer at 600 nm, collecting 100 μL of the bacterial suspension diluted in 900 μL of the sterile culture medium. This test required the use of a 96-well plate and the required volume of the microbial suspension to be seeded was calculated for an OD corresponding to a value equal to 0.01 in each well. In this plate, the first line corresponded to the negative control (195 μL of sterile culture medium in each well), the second line to the positive control (seeded culture medium supplemented with 2% of DMSO), the third line was loaded twice with bacterial suspension, 8 μL of test product were placed in each well. Thereafter, a 0.5 cascade dilution was performed from this line.
(§8) The first column served as inhibition control. A sterile filter was then placed on the microplate, allowing the passage of gases but not of contaminants. The microplate was incubated at 37° C. under a humid atmosphere for 24 hours.
(§9) NB: The medium used is Mueller-Hinton (MH) medium for bacteria. All the tests were performed in duplicate.
(§10) 4) Reading of the Results
(§11) After incubation, the filter was replaced with a transparent film, and an OD reading was then taken in an iEMS plate spectrophotometer at 620 nm. Calculation of the minimum inhibitory concentration (MIC) was performed.

P. aeruginosa (1051575) [1] = experiment: MIC determination by microplate dilution, P. aeruginosa animal strain; assay type: cell-based, Pseudomonas aeruginosa; settings: Pseudomonas aeruginosa, Gram-negative, Mueller-Hinton medium, 24 h, 37° C.
Protocol: as §1, §2, §3, §4, §5, §6, §7, §8, §9, §10, §11

P. aeruginosa (1051575) [2] = experiment: Potentiation of the doxycycline activity at 2 μg/mL; assay type: cell-based, Pseudomonas aeruginosa; settings: in combination with doxycycline 2 μg/mL; 24 h, 37°
S. aureus (340) = experiment: MIC determination by microplate dilution, S. aureus animal strain; assay type: cell-based, Staphylococcus aureus; settings: Staphylococcus aureus, Gram-positive, Mueller-Hinton medium, 24 h, 37° C.
Protocol: as §1, §2, §3, §4, §5, §6, §7, §8, §9, §10, §11

E. coli ATCC28922 = experiment: MIC determination by microplate dilution, E. coli human strain; assay type: cell-based, Escherichia coli; settings: Escherichia coli, ATCC28922, Gram-negative, Mueller-Hinton medium, 24 h, 37° C.
Protocol: as §1, §2, §3, §4, §5, §6, §7, §8, §9, §10, §11

CHO-K1 cells = experiment: WST1 cytotoxicity test on CHO-K1 cells; assay type: cell-based, Chinese hamster; settings: Cricetulus griseus, read-out: IC50 (μg/mL) CHO
Protocol: Test WST1 was used to measure the cytotoxic activity of the products. This is a colorimetric test which makes it possible to measure the viability and the degree of cell proliferation. It is based on cleavage of the colorless tetrazolium salts WST-1 (4-[3-(4-iodophenyl)-2-(4-nitrophenyl)-2H-5-tetrazolio]-1,3-benzene disulfonate) with mitochondrial dehydrogenases to the yellow-colored formazan derivative, which may be quantified by spectrophotometry at 420-480 nm.
The WST1 test was performed on Chinese hamster ovary cells. The CHO-K1 cells (ATCC, USA) are kept in culture on McCoy's 5A medium supplemented with 10% fetal calf serum, 2 mM of L-glutamine and a mixture of penicillin-streptomycin (100 U/ml: 10 μg/mL). The culture is incubated at 37° C. under an atmosphere enriched in CO2 (5%), and subcultured every two days.
The cells are transferred into 96-well plates (25 000 cells/mL) in whole McCoy's 5A medium, and maintained for 24 hours at 37° C. under a humid atmosphere enriched in CO2 (5%). Increasing concentrations of test products are added to the wells in double tests and 8 growth controls containing the cells in the medium alone are included in each series of tests. After 24 hours at 37° C. (5% CO2), the culture medium is removed, the cells are rinsed in phosphate buffer (PBS) and 50 μL of PBS containing 10% of reagent WST1 are added to each well. After 20 minutes of incubation at 37° C., the results are read by spectrophotometry at 450 nm.
The results are expressed in dose-response relationships, modeled by nonlinear regression analysis using the TableCurve software. The 50% inhibitory concentration (IC50) represents the concentration of product that is capable of reducing the cell viability by 50%.

S. intermedius (1051997) = experiment: MIC determination by microplate dilution, S. intermedius animal strain; assay type: cell-based, Staphylococcus intermedius; settings: Staphylococcus intermedius, Gram-positive, Mueller-Hinton medium, 24 h, 37° C.
Protocol: as §1, §2, §3, §4, §5, §6, §7, §8, §9, §10, §11

P. aeruginosa ATCC27853 = experiment: MIC determination by microplate dilution, P. aeruginosa human strain; assay type: cell-based, Pseudomonas aeruginosa; settings: Pseudomonas aeruginosa, ATCC27853, Gram-negative, Mueller-Hinton medium, 24 h, 37° C.
Protocol: as §1, §2, §3, §4, §5, §6, §7, §8, §9, §10, §11

S. aureus ATCC25923 = experiment: MIC determination by microplate dilution, S. aureus human strain; assay type: cell-based, Staphylococcus aureus; settings: Staphylococcus aureus, ATCC25923, Gram-positive, Mueller-Hinton medium, 24 h, 37° C.
Protocol: as §1, §2, §3, §4, §5, §6, §7, §8, §9, §10, §11

E. faecalis ATCC29212 = experiment: MIC determination by microplate dilution, E. faecalis human strain; assay type: cell-based, Enterococcus faecalis; settings: Enterococcus faecalis, ATCC29212, Gram-positive, Mueller-Hinton medium, 24 h, 37° C.
Protocol: as §1, §2, §3, §4, §5, §6, §7, §8, §9, §10, §11

[3] = Table III, WST1, CHO-K1 cells, 24 h, concentration reducing cell viability by 50%

SMILES | MIC (E. coli (1956)) [µg/mL] | MIC (P. aeruginosa (1051575) [1]) [µg/mL] | MIC - P. aeruginosa (1051575): content of compound of formula (I) to restore the doxycycline activity (at 2 μg/mL) (P. aeruginosa (1051575) [2]) [µg/mL] | MIC (S. aureus (340)) [µg/mL] | MIC (E. coli ATCC28922) [µg/mL] | IC50 (CHO-K1 cells; CHO-K1, 24 h) [µg/mL] | MIC (S. intermedius (1051997)) [µg/mL] | MIC (P. aeruginosa ATCC27853) [µg/mL] | MIC (S. aureus ATCC25923) [µg/mL] | MIC (E. faecalis ATCC29212) [µg/mL] | IC50 (CHO-K1 cells; [3]) [µg/mL]
COC(=O)CC[C@@H](C)[C@H]1CCC2C3CCC4C[C@@H](NCCCNCCCN)CC[C@]4(C)C3CC[C@@]21C (stereo partly drawn) [(18), methyl 3β-norspermidinolithocholate] | 3 (≈ 5.95 µM) | 3 (≈ 5.95 µM) | 3 | 0.7 (≈ 1.39 µM) | 32 (≈ 63.5 µM) | 80 (≈ 159 µM) | 0.7 (≈ 1.39 µM) |  |  |  | 
CC(C)OC(=O)CC[C@@H](C)[C@H]1CCC2C3C(CC[C@@]21C)[C@@]1(C)CC[C@H](NCCNCCNCCNCCNCCN)CC1C[C@H]3O (stereo partly drawn) [(23), isopropyl 3β-(pentaethylenehexamine)chenodeoxycholate] | 32 (≈ 49.3 µM) | 64 (≈ 98.6 µM) | 8 | 16 (≈ 24.7 µM) | 16 (≈ 24.7 µM) |  | 8 (≈ 12.3 µM) | 64 (≈ 98.6 µM) | 16 (≈ 24.7 µM) | 16 (≈ 24.7 µM) | 
CC(C)OC(=O)CC[C@@H](C)[C@H]1CCC2C3C(CC[C@@]21C)[C@@]1(C)CC[C@H](NCCNCCNCCNCCNCCN)CC1C[C@@H]3O (stereo partly drawn) [(24), isopropyl 3β-(pentaethylenehexamine)ursodeoxycholate] | 65 (≈ 100 µM) | 130 (≈ 200 µM) |  | 32 (≈ 49.3 µM) |  |  | 8 (≈ 12.3 µM) |  |  |  | 
COC(=O)CC[C@@H](C)[C@H]1CCC2C3CCC4C[C@@H](NCCNCCNCCNCCNCCN)CC[C@]4(C)C3CC[C@@]21C (stereo partly drawn) [(25), methyl 3β-(pentaethylenehexamine)lithocholate] | 30 (≈ 49.6 µM) | 60 (≈ 99.2 µM) |  | 8 (≈ 13.2 µM) | 30 (≈ 49.6 µM) |  | 4 (≈ 6.61 µM) | 60 (≈ 99.2 µM) | 8 (≈ 13.2 µM) | 15 (≈ 24.8 µM) | 76 (≈ 126 µM)
COC(=O)CC[C@@H](C)[C@H]1CCC2C3C(C[C@H](O)[C@@]21C)[C@@]1(C)CC[C@H](NCCCN(C)CCCN)C[C@H]1C[C@H]3O (stereo partly drawn) [(33), methyl 3β-(bis(3-aminopropyl)methylamine)cholate] | 50 (≈ 90.9 µM) | 50 (≈ 90.9 µM) |  | 14 (≈ 25.5 µM) | 27 (≈ 49.1 µM) |  | 14 (≈ 25.5 µM) | 27 (≈ 49.1 µM) | 14 (≈ 25.5 µM) | 14 (≈ 25.5 µM) | 126 (≈ 229 µM)
CC(C)OC(=O)CC[C@@H](C)[C@H]1CCC2C3C(C[C@H](O)[C@@]21C)[C@@]1(C)CC[C@H](NCCN(CCN)CCN)CC1C[C@H]3O (stereo partly drawn) [(35), isopropyl 3β-(tris(2-aminoethyl)amine)cholate] | 56 (≈ 96.7 µM) | 56 (≈ 96.7 µM) | 7 |  | 28 (≈ 48.4 µM) |  | 14 (≈ 24.2 µM) | 56 (≈ 96.7 µM) | 28 (≈ 48.4 µM) | 28 (≈ 48.4 µM) | 
CC(C)OC(=O)CC[C@@H](C)[C@H]1CCC2C3C(CC[C@@]21C)[C@@]1(C)CC[C@H](NCCCN(CCCN)CCCN)CC1C[C@@H]3O (stereo partly drawn) [(42), isopropyl 3β-(tris(3-aminopropyl)amine)ursodeoxycholate] | 120 (≈ 198 µM) | 60 (≈ 99.2 µM) | 4 | 30 (≈ 49.6 µM) |  |  | 15 (≈ 24.8 µM) |  |  |  | 
COC(=O)CC[C@@H](C)[C@H]1CCC2C3CCC4C[C@@H](NCCCN(C)CCCN)CC[C@]4(C)C3CC[C@@]21C (stereo partly drawn) [(45), methyl 3β-(bis(3-aminopropyl)methylamine)lithocholate] | 6 (≈ 11.6 µM) | 26 (≈ 50.2 µM) |  | 6 (≈ 11.6 µM) | 26 (≈ 50.2 µM) |  | 3 (≈ 5.79 µM) | 26 (≈ 50.2 µM) | 12 (≈ 23.2 µM) | 12 (≈ 23.2 µM) | 46 (≈ 88.8 µM)
COC(=O)CC[C@@H](C)[C@H]1CCC2C3CCC4C[C@@H](NCCCN(CCCN)CCCN)CC[C@]4(C)C3CC[C@@]21C (stereo partly drawn) [(46), methyl 3β-(tris(3-aminopropyl)amine)lithocholate] | 28 (≈ 49.9 µM) | 28 (≈ 49.9 µM) |  | 7 (≈ 12.5 µM) | 56 (≈ 99.8 µM) |  | 4 (≈ 7.13 µM) | 28 (≈ 49.9 µM) | 14 (≈ 25 µM) | 14 (≈ 25 µM) | 30 (≈ 53.5 µM)
COC(=O)CC[C@@H](C)[C@H]1CCC2C3C(CC[C@@]21C)[C@@]1(C)CC[C@H](NCCCN(CCCN)CCCN)CC1C[C@@H]3O (stereo partly drawn) [(52), methyl 3β-(tris(3-aminopropyl)amine)ursodeoxycholate] | 30 (≈ 52 µM) | 30 (≈ 52 µM) | 7 | 14 (≈ 24.3 µM) | 30 (≈ 52 µM) |  |  | 14 (≈ 24.3 µM) | 14 (≈ 24.3 µM) | 30 (≈ 52 µM) | 
COC(=O)CC[C@@H](C)[C@H]1CCC2C3C(C[C@H](O)[C@@]21C)[C@@]1(C)CC[C@H](NCCCNCCCN)C[C@H]1C[C@H]3O (stereo partly drawn) [Compound (5), methyl 3β-norspermidinocholate] | 27 (≈ 50.4 µM) |  |  | 7 (≈ 13.1 µM) | 14 (≈ 26.1 µM) |  | 2 (≈ 3.73 µM) | 7 (≈ 13.1 µM) | 3 (≈ 5.6 µM) | 3 (≈ 5.6 µM) | 
COC(=O)CC[C@@H](C)[C@H]1CCC2C3C(CC[C@@]21C)[C@@]1(C)CC[C@H](NCCCNCCCNCCCN)CC1C[C@H]3O (stereo partly drawn) [Compound (8), methyl 3β-norsperminochenodeoxycholate] | 29 (≈ 50.3 µM) | 7 (≈ 12.1 µM) | 1 | 4 (≈ 6.93 µM) | 15 (≈ 26 µM) | 22 (≈ 38.1 µM) | 2 (≈ 3.47 µM) |  | 4 (≈ 6.93 µM) |  | 
CC(C)OC(=O)CC[C@@H](C)[C@H]1CCC2C3CCC4C[C@@H](NCCCNCCCNCCCN)CC[C@]4(C)C3CC[C@@]21C (stereo partly drawn) [Compound (15), isopropyl 3β-norsperminolithocholate] | 7 (≈ 11.9 µM) | 2 (≈ 3.4 µM) | 2 | 7 (≈ 11.9 µM) | 14 (≈ 23.8 µM) | 15 (≈ 25.5 µM) | 1 (≈ 1.7 µM) |  | 7 (≈ 11.9 µM) |  | 
COC(=O)CC[C@@H](C)[C@H]1CCC2C3CCC4C[C@@H](NCCCNCCCNCCCN)CC[C@]4(C)C3CC[C@@]21C (stereo partly drawn) [Compound (17), methyl 3β-norsperminolithocholate] | 7 (≈ 12.5 µM) | 7 (≈ 12.5 µM) |  | 4 (≈ 7.13 µM) | 28 (≈ 49.9 µM) |  | 4 (≈ 7.13 µM) | 28 (≈ 49.9 µM) | 16 (≈ 28.5 µM) | 4 (≈ 7.13 µM) | 14 (≈ 25 µM)
